Test results from patent publication US12383510B2 (Starton Therapeutics, Inc., priority 2020, dated 2025).
Entries after “also recorded” stand apart in the source; their conditions may differ. Marks after values point to notes of the source that are not given here.

Columns and labels:
clinical = settings: human, plasma, oral
[1] = tested on: healthy female volunteers; experiment: Phase 1 study: antiemetic effect of oral olanzapine doses following apomorphine challenge on day 8; format: in vivo, human; settings: for Nausea Score 1-120 min.: apomorphine 0.05 mg/kg, scale 1=no nausea, 10=severe nausea
Method: Twenty-four healthy female volunteers were enrolled. Four active-treatment groups and a cohort of placebo-treated subjects were evaluated.
Subjects were administered study drug once daily for 8 days. During this period, subjects maintained a study diary of their side effects. The subject diary was used to collect on a daily basis any adverse events including an assessment of the presence and/or intensity of sedation on a numeric scale where 1=no sedation and 10=excessive sedation.
On the 8th day, subjects were administered apomorphine at a dose of 0.05 mg/kg and assessed over 6 hours. During this period, subjects were asked to record episodes of nausea on a numeric scale every 15 minutes for the duration of assessment. The intensity of nausea was captured using a 1-10 rating scale where 1=no nausea and 10=severe nausea. Emesis intensity was also captured where 1=no emesis and 10=severe emesis. Episodes of retching or emesis were collected and measured for the absolute number of retches or vomits during the collection period and documented for the time of the specific event following the administration of the apomorphine.

[2] = oral olanzapine 2 mg a day, apomorphine challenge
[3] = oral olanzapine 4 mg a day, apomorphine challenge
[4] = oral olanzapine 6 mg a day, apomorphine challenge
[5] = oral olanzapine 8 mg a day, apomorphine challenge

SMILES: Cc1cc2c(s1)Nc1ccccc1N=C2N1CCN(C)CC1 [olanzapine, 2-methyl-10-(4-methyl-1-piperazinyl)-4H-thieno-[2,3-b][1,5]benzo-diazepine]
- concentration at 1 day (clinical; 4 mg a day): 5 ng/mL
- concentration at 1 day (clinical; 6 mg a day): 8 ng/mL
- Nausea severity scores during 0-120 min following apomorphine challenge, comparison with placebo ([1]; 2 mg olanzapine steady state dose): not significantly different than placebo
- Nausea severity scores during 0-120 min following apomorphine challenge, comparison with placebo ([1]; 4 mg olanzapine steady state dose, p<0.05): significantly different than placebo
- Maximum intensity of nausea, comparison between doses ([1]; 4 mg, 6 mg and 8 mg dose, apomorphine challenge): no different
- Nausea severity scores during 0-120 min following apomorphine challenge, comparison with placebo ([1]; 6 mg olanzapine steady state dose, p<0.05): significantly different than placebo
- Nausea severity scores during 0-120 min following apomorphine challenge, comparison with placebo ([1]; 8 mg olanzapine steady state dose): not different from the placebo control; also recorded: not significantly different than placebo
- Nausea Score 1-120 min. ([1]; oral olanzapine 2 mg a day for 8 days): 6**
- Nausea Score 1-120 min. (severity in words) [1, 2]: Moderate
- Retching (incidence) [1, 2]: 40%
- Vomiting (incidence) [1, 2]: 40%
- Nausea Score 1-120 min. ([1]; oral olanzapine 4 mg a day for 8 days): 3.4 #
- Nausea Score 1-120 min. (severity in words) [1, 3]: Mild
- Retching (incidence) [1, 3]: 0%
- Vomiting (incidence) [1, 3]: 20%
- Nausea Score 1-120 min. ([1]; oral olanzapine 6 mg a day for 8 days): 3.7 #
- Nausea Score 1-120 min. (severity in words) [1, 4]: Mild
- Retching (incidence) [1, 4]: 0%
- Vomiting (incidence) [1, 4]: 0%
- Nausea Score 1-120 min. ([1]; oral olanzapine 8 mg a day for 8 days): 5**
- Nausea Score 1-120 min. (severity in words) [1, 5]: Mild
- Retching (incidence) [1, 5]: 20%
- Vomiting (incidence) [1, 5]: 20%
